Results: publication PMC11160566 (ACS infectious diseases, 2024)

What was measured:
GES-5 carbapenemase [1] = molecular target: T1, GES-5 carbapenemase (Klebsiella pneumoniae, UniProt Q09HD0); experiment: X-ray crystal structure of acyl-enzyme; format: binding
GES-5 carbapenemase [2] = molecular target: T1, GES-5 carbapenemase; experiment: reporter substrate hydrolysis, absorbance at […] nm; format: biochemical

T1 sequence (Q09HD0 19-287): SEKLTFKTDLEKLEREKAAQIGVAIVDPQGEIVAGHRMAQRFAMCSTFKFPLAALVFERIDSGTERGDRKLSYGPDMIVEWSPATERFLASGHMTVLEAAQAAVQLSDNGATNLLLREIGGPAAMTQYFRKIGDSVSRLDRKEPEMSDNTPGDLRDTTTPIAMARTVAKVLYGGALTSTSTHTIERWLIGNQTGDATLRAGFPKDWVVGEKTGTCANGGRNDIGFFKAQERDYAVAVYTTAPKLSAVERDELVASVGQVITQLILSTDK

SMILES | X-ray crystal structure of acyl-enzyme (1.62 Å) (GES-5 carbapenemase [1]) | reporter substrate hydrolysis, absorbance at 500 nm (GES-5 carbapenemase [2])
C[C@@H](O)[C@H]1C(=O)N2C(C(=O)O)=C(S[C@@H]3CN[C@H](C(=O)N(C)C)C3)[C@H](C)[C@H]12 [MEM, meropenem] | The 3D structures of the acyl-enzyme complexes of GES-5-meropenem and GES-5-NA-1-157 were determined by X-ray crystallography | 
O=C(Cc1cccs1)N[C@@H]1C(=O)N2C(C(=O)O)=C(/C=C/c3ccc([N+](=O)[O-])cc3[N+](=O)[O-])CS[C@H]12 [nitrocefin] |  | The progress curves for nitrocefin hydrolysis by GES-5 in the presence of NA-1-157
